Patent EP4653008A1, “TRADITIONAL CHINESE MEDICINE COMPOSITION HAVING EFFICACY IN TREATING COLDS AND USE THEREOF” (Shijiazhuang Yiling Pharmaceutical Co., Ltd., priority 2023, dated 2024)
≈ marks a conversion by molar mass, not a printed value.

How the values were obtained:
ICR mice [1] = experiment: ear-swelling in mice caused by xylene; format: in vivo; conditions: 0.50g/kg
Method: Referring to the specification and literature documents, the dose of aspirin drug administered to mice was set at 0.50 g/kg, as shown in Table 25.
(§1) A disposable syringe was used to administer the drug at a dosing volume of 10 ml/kg. Animals in the model group were administered with a corresponding volume of the solvent. The administration was carried out for 5 days.
After receiving new experimental animals, they were numbered and subjected to an adaptive feeding for at least 5 days. The grouping was carried out as described previously. 0.5 h after the last administration, the animal was fixed, and the right ear was exposed. The xylene was applied to the middle area of the right ear of the mice by dropwise addition using a pipette, with each 15 µL of xylene applied to dorsal and ventral sides and spread evenly. The left ear was left untreated. After 40 min, the animal was sacrificed by cervical dislocation. Both ears were then cut along the base of the auricle. A punch (7 mm diameter) was used to obtain symmetrical ear tissues from both ears, which were weighed on a precision analytical balance. The weights were recorded, and the degree of swelling and the swelling inhibition rate were calculated. Swelling degree = weight of the right ear tissue - weight of the left ear tissue [formula] [formula]

SD rats = experiment: fever in rats induced by intraperitoneal injection of LPS; format: in vivo; conditions: 3h after LPS, 26.64 mg/kg
ICR mice [2] = experiment: writhing in mice caused by acetic acid; format: in vivo; conditions: 5.00 mg/kg
Method: Referring to the previous studies in our laboratory and relevant literatures, the dose of indomethacin drug administered to mice was set at 5.00 mg/kg, as shown in Table 23.
as §1
After receiving new experimental animals, they were numbered, subjected to an adaptive feeding for 5 days and grouped as described above. All animals were fasted for more than 12 h before the last administration, and 1 h after the last administration, 0.7% acetic acid was injected into the abdominal cavity of mice at a dose of 10ml/kg to stimulate the visceral and parietal peritoneum, leading to a deep, widespread, and long-time pain. […] The latency period to the onset of writhing and the number of writhing incidents within 15 min were recorded as quantitative indicators of pain.

influenza B virus (IBV) = experiment: in vitro antiviral assay (CPE, CCK-8); format: cell-based; conditions: MDCK host cells, n=4
MDCK = experiment: in vitro cytotoxicity (CCK-8); format: cell-based, canine; conditions: Canis lupus familiaris; MDCK cells; 72 h; n=3
Method: • (1) Test Grouping: The appropriate starting concentration of the pharmaceutical composition was selected for test grouping according to the references. All the pharmaceutical compositions were diluted with serum-free DMEM medium. For the cell control group, only serum-free DMEM medium was used. […] For the positive control drug group, oseltamivir acid as a positive drug was set up at concentrations of 1000, 500, 250, 125, 62.5, and 31.25 µM. […] Recombinant human interferon α2b gel as a positive drug was set up at final concentrations of 1000, 333.33, 111.11, […], 33.33, and 11.11 IU/mL. The blank control group contained only serum-free DMEM medium and no cells. Three replicate wells were set up for each concentration in each group. • (2) Cell Plating: Cells were prepared into a suspension single cells (1×10^4 cells/mL), seeded to a 96-well cell culture plate (100 µL/well), and incubated overnight in a 37°C, 5% CO2 incubator. • (3) Addition of Drug and Test: The culture medium was discarded and the cells were washed twice with 1×PBS. […] After cells were incubated in the incubator for 1-4 h, the OD450 nm value was read using a microplate reader. The inhibition rate of cells and the half maximal inhibitory concentration (IC50) of the tested drugs on cells were calculated. […]

influenza A virus (H3N2) = experiment: in vitro antiviral assay (CPE, CCK-8); format: cell-based; conditions: MDCK host cells, n=4
H1HeLa = experiment: cells; format: cell-based; conditions: Homo sapiens, H1-HeLa, 72 h, n=3
IFN-γ = IFN-γ in tissues (ELISA), coxsackievirus infection model of young rats
Coxsackievirus B3 (CVB3) [3] = experiment: viral load in gastrointestinal tissues, coxsackievirus infection model of young rats; format: in vivo, young SD rats
Method: Each group consisted of 50 animals.
Homogenization was carried out using a high-speed homogenizer to prepare a tissue suspension. The suspension was centrifuged at 14000 rpm for 10 min at 4°C and the resulting supernatant was collected. RNA was extracted using the RNA extraction solution, and the extracted RNA was reverse transcribed into c-DNA. The fluorescence intensity of c-DNA obtained by reverse transcription was measured by using absolute quantitative PCR, and the fluorescence intensity of c-DNA was used to reflect the load of coxsackievirus B3 in the tissues of the stomach, small intestine, and large intestine.

TNF-α = TNF-α in tissues (ELISA), coxsackievirus infection model of young rats
Coxsackievirus B3 (CVB3) [4] = experiment: pathological changes of gastrointestinal tract, coxsackievirus infection model of young rats; conditions: animals with this lesion grade (n=10), 120.7 mg/kg
[5] = system: lymphocyte (CD4^+ and CD8^+); experiment: lymphocytes in blood (flow cytometry), coxsackievirus infection model of young rats; conditions: 120.7mg/kg; for CD4^+/CD8^+: ratio
IL-1β = IL-1β in tissues (ELISA), coxsackievirus infection model of young rats
IL-10 = IL-10 in tissues (ELISA), coxsackievirus infection model of young rats
rotavirus (RV) = experiment: in vitro antiviral assay (CPE, CCK-8); format: cell-based; conditions: Vero
LLC-MK2 = experiment: in vitro cytotoxicity (CCK-8); format: cell-based, monkey; conditions: Primates; LLC-MK2 cells; 72 h; n=3
[6] = system: respiratory syncytial virus (RSV); experiment: in vitro antiviral assay (CPE, CCK-8); format: cell-based; conditions: human respiratory syncytial virus, HEp-2 host cells, 100 TCID50, n=4
HEp-2 = experiment: in vitro cytotoxicity (CCK-8); format: cell-based; conditions: Homo sapiens; HEp-2 cells; 72 h; n=3
Vero = experiment: in vitro cytotoxicity (CCK-8); format: cell-based, African green monkey; conditions: Chlorocebus sabaeus; Vero cells; 72 h; n=3
Coxsackievirus B3 (CVB3) [7] = experiment: in vitro antiviral assay (CPE, CCK-8); format: cell-based; conditions: Enterovirus B, LLC-MK2
[8] = system: parainfluenza virus (PIV); experiment: in vitro antiviral assay (CPE, CCK-8); format: cell-based; conditions: LLC-MK2 host cells, 100 TCID50, n=4
rhinovirus (Rhv) = experiment: in vitro antiviral assay (CPE, CCK-8); format: cell-based; conditions: Enterovirus, H1-HeLa
enterovirus (EV71) = experiment: in vitro antiviral assay (CPE, CCK-8); format: cell-based; conditions: LLC-MK2 host cells, 100 TCID50, n=4
Method: • (1) Test Grouping: Concentrations were set up based on the comprehensive results of cytotoxicity assays and OD450nm, values, and literature reports on the antiviral effects of positive control drugs. The concentration without significant toxic effects on cells under microscopic observation was selected as the starting concentration for the in vitro antiviral test. […] All of them were diluted into 5 concentrations, with 4 replicate wells set up for each concentration. A virus titer of 100 TCID50 was used to infect the cells. The grouping was as follows: virus + drug group, in which the drug group included the test substance group and the positive control drug group; the virus control group (with virus and no drug), and the cell control group (with virus maintenance solution only). See Table 3 below for detail. • (2) Cell Plating: Cells were prepared into a single cell suspension (1×10^4 cells/mL), seeded into a 96-well cell culture plate at 100 µL per well, and incubated overnight in a 37°C, 5% CO2 incubator. • (3) Addition of Drug and Observation: The medium was discarded, and the cells were washed twice with 1×PBS. […] The OD450nm value of the cells was read using a microplate reader. The inhibition rates of virus by different concentrations of the test substance and their median effective concentration (EC50) against virus were calculated as follows. […]

[9] = 3 days after administration, 120.7 mg/kg
[10] = next day after last administration, 120.7mg/kg
[11] = next day after last administration
[12] = next day after the last administration

## CC(=O)Oc1ccccc1C(=O)O [Aspirin, aspirin]
ICR mice [1]
  Swelling degree: 5.53 ± 2.81 mg
  Swelling inhibition rate (%): 50.34%

## CC(C)Cc1ccc(C(C)C(=O)O)cc1 (centres unmarked) [Ibuprofen]
SD rats
  ΔT (ΔT =Tx-T0) °C: 0.28 ± 0.48 °C

## COc1ccc2c(c1)c(CC(=O)O)c(C)n2C(=O)c1ccc(Cl)cc1 [Indomethacin, indomethacin]
ICR mice [2]; onset of writhing
  Latency period: 736.83 ± 258.16 s
ICR mice [2]; within 15 min
  Number of writhing incident: 2.17±4.53

## CCC(CC)O[C@@H]1C=C(C(=O)O)C[C@H](N)[C@H]1NC(C)=O [Oseltamivir acid, Oseltamivir Acid]
Influenza B virus (IBV)
  EC50: 0.0806 µM
MDCK
  IC50: > 1000 µM
Influenza A virus (H3N2)
  EC50: 0.931 µM
H1HeLa
  IC50: 1 µM

## NC(=O)c1ncn([C@@H]2O[C@H](CO)[C@@H](O)[C@H]2O)n1 [Ribavirin granule, Ribavirin]
IFN-γ; D4, 120.7mg/kg
  IFN-γ Large intestine: 18364 ± 1203 pg/mg
  IFN-γ Small intestine: 16295 ± 865 pg/mg
  IFN-γ Stomach: 18235 ± 816 pg/mg
IFN-γ; D8, 120.7 mg/kg
  IFN-γ Large intestine: 19728 ± 926 pg/mg
  IFN-γ Small intestine: 17443 ± 1296 pg/mg
  IFN-γ Stomach: 16481 ± 1093 pg/mg
Coxsackievirus B3 (CVB3) [3]; [9]
  viral load, Large intestine: 515.92±226.55 Copies/mg
  viral load, Small intestine: 947.76±811.44 Copies/mg
  viral load, Stomach: 49.19±11.47 Copies/mg
Coxsackievirus B3 (CVB3) [3]; [10]
  viral load, Large intestine: 16346.45±20084.56 Copies/mg
  viral load, Small intestine: 308.03±198.76 Copies/mg
  viral load, Stomach: 104.75±74.10 Copies/mg
TNF-α; D4, 120.7mg/kg
  TNF-α Large intestine: 2557 ± 100 pg/mg
  TNF-α Small intestine: 2806 ± 158 pg/mg
TNF-α; D8, 120.7 mg/kg
  TNF-α Large intestine: 2491 ± 151 pg/mg
  TNF-α Small intestine: 2698 ± 145 pg/mg
  TNF-α Stomach: 2731 ± 96 pg/mg
Coxsackievirus B3 (CVB3) [4]; 3 days after administration
  Cecum and rectum +: 3
  Cecum and rectum + +: 0
  Cecum and rectum -: 7
  Duodenum and jejunum +: 0
  Duodenum and jejunum + +: 0
  Ileum and colon +: 2
  Ileum and colon + +: 3
  Ileum and colon -: 5
  Stomach +: 9
  Stomach + +: 1
  Stomach -: 0
Coxsackievirus B3 (CVB3) [4]; [11]
  Cecum and rectum +: 5
  Cecum and rectum + +: 2
  Cecum and rectum -: 3
  Duodenum and jejunum +: 0
  Duodenum and jejunum + +: 0
  Ileum and colon +: 2
  Ileum and colon + +: 3
  Ileum and colon -: 5
  Stomach +: 5
  Stomach + +: 0
  Stomach -: 5
[5]; 3 days after administration
  % lymphocyte CD4^+: 33.31±8.66%
  % lymphocyte CD8^+: 20.52±5.91%
  CD4^+/CD8^+: 1.65±0.18
[5]; [12]
  % lymphocyte CD4^+: 22.69±4.04%
  % lymphocyte CD8^+: 11.40±2.18%
  CD4^+/CD8^+: 2.03±0.37
IL-1β; D4, 120.7mg/kg
  IL-1β Large intestine: 317 ± 18 pg/mg
  IL-1β Small intestine: 318 ± 23 pg/mg
  IL-1β Stomach: 291 ± 20 pg/mg
IL-1β; D8, 120.7 mg/kg
  IL-1β Large intestine: 320 ± 34 pg/mg
  IL-1β Small intestine: 340 ± 21 pg/mg
  IL-1β Stomach: 308 ± 24 pg/mg
IL-10; D4, 120.7mg/kg
  IL-10 Large intestine: 497 ± 28 pg/mg
  IL-10 Small intestine: 473 ± 23 pg/mg
  IL-10 Stomach: 509 ± 37 pg/mg
IL-10; D8, 120.7 mg/kg
  IL-10 Large intestine: 496 ± 50 pg/mg

## NC(=O)c1ncn([C@@H]2O[C@H](CO)[C@@H](O)[C@H]2O)n1 [Ribavirin]
Rotavirus (RV)
  EC50: 20.6 µg/mL (≈ 84.5 µM)
LLC-MK2
  IC50: > 1000 µg/mL
[6]
  EC50: > 10 µg/mL
HEp-2
  IC50: > 1000 µg/mL
Vero
  IC50: > 1000 µg/mL
Coxsackievirus B3 (CVB3) [7]
  EC50: 102 µg/mL (≈ 417 µM)
[8]
  EC50: 20.9 µg/mL (≈ 85.7 µM)
Rhinovirus (Rhv)
  EC50: > 30 µg/mL
H1HeLa
  IC50: > 1000 µg/mL
Enterovirus (EV71)
  EC50: 6.03 µg/mL (≈ 24.7 µM)
